Key:
[1] = target: T1, IRE1a (Homo sapiens, UniProt O75460); assay: In vitro FRET assay (IRE1a cleavage of XBP1 RNA probe); assay type: biochemical; conditions: 2 nM SignalChem IRE1a, tested as Formic Acid Salt (37: HCl Salt)
T1 construct: purchased SignalChem
Procedure: In vitro FRET assay was performed to evaluate the ability of select compounds to inhibit IRE1, the results of which are summarized in Table 3. To perform the in vitro FRET assay, 1× complete assay buffer (CAB: […], 50 mM sodium citrate pH 7.15, 1 mM magnesium acetate, 0.02% tween 20) was used to SignalChem IRE1a protein to a final concentration of 2 nM. Selected compounds were serially diluted with DMSO in a non-binding black 384-well plate for a total of 15 ul in each well. 2 ul of the serially diluted compound or DMSO control were then added to new wells containing 98 ul of 1× CAB, for a total volume of 100 ul, 10 ul of which were then transferred to wells of a new plate. 5 ul of the diluted IRE1a was then added to each well. 5 ul of a […] XBP1 RNA probe was then added to each well. Fluorescence was then read over 30 minutes in kinetic mode (485/515 nm).
Two RNA probes were used, XBP1 wildtype (SEQ ID NO: 2) which is able to be spliced by active IRE1a or XBP1 mutant (SEQ ID NO: 3) which is unable to be spliced. Each probe contained a 5′ 6-FAM modification and a 3′ IOWA black FQ modification. […]

[2] = system: IRE1a; assay: IRE1a Endoribonuclease Nanoluciferase Assay (XBP1 luciferase reporter in 293T cells); assay type: cell-based, human; conditions: Homo sapiens, HEK-293T, ER stressor, tested as Formic Acid Salt (37: HCl Salt)
Procedure: Compounds disclosed herein assessed for disruption of IRE1 signaling using a IRE1a Endoribonuclease Nanoluciferase Assay. Briefly, 25×10^5 293T cells were seeded in a 10 cm^2 tissue culture plate. About 24 hours later, the cells were transfected with Effectene. In a 15 mL tube, the following was added: 2 ug XBP1 luciferase reporter plasmid (PGK-Luc2-P2A-XBP1u-Nanoluciferase-Pest); 300 ul EC buffer; and 16 ul Enhancer, followed by incubation at room temp for 5 minutes. Next, 60 ul Effectene (Qiagen 301427) was added, followed by incubation at room temperature for 10 minutes. 2.6 mL cDMEM media was added. Old media was aspirated from the cells, followed by addition of 7 mL fresh media. Full transfection mixture was added dropwise to cells. Cells were incubated for 6 hours, followed by trypsinization, centrifugation and resuspension in 11 mL fresh cDMEM media. 100 uL of cells were plated per a well in a 96 well plate. A day later, ER stressors of choice +/−inhibitors were added. To harvest, media was aspirated from cells completely, then 50 uL 1× passive lysis buffer (Promega: E1941) was added per well and put on shaker (300 rpm) for 30 minutes at room temperature. Cells were centrifuged, and 15 uL sample per well was added to a new, opaque white 384 well plate (Corning 3570). 15 uL OneGlo (nanoluciferase kit, Promega N1630) was added. Plates were spun down, placed on shaker (300 rpm) for 10 minutes. Plates were read on luminometer, 1000 ms integration time per well. 15 uL Stop an Glo (nanoluciferase kit) was added. Plates were spun down, placed on shaker (300 rpm) for 10 minutes. Plates were read on luminometer, 1000 ms second integration time per well. Recordings are provided below in Table 4.

T1 sequence (O75460 19-977): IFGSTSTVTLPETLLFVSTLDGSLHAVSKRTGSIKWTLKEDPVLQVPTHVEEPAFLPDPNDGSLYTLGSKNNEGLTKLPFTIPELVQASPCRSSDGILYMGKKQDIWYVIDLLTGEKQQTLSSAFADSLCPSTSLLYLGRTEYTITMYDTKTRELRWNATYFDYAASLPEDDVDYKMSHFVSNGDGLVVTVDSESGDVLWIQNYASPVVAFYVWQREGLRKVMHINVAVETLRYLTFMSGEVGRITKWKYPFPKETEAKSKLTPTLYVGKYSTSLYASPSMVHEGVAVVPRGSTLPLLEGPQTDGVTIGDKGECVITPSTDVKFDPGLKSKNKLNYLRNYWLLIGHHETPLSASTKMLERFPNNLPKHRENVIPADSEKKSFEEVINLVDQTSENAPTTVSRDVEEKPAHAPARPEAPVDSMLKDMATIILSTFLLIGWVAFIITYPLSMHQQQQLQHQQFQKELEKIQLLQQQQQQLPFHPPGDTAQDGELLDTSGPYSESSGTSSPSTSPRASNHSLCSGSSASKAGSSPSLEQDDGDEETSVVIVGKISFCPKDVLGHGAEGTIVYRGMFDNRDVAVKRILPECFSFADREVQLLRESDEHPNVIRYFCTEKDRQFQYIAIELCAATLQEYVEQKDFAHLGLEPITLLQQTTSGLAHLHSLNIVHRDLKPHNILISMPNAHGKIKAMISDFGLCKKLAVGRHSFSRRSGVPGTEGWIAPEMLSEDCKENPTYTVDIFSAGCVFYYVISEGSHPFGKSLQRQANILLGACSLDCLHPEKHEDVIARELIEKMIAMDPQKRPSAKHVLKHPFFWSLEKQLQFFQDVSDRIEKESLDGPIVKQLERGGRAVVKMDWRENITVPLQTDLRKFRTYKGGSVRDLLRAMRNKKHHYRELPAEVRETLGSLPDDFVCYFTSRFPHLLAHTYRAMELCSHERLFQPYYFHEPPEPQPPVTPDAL

Row | SMILES | IC50 [1] | EC50 [2]
1 | Cc1cc2nc(N[C@H]3CC[C@H](N)CC3)ncc2cc1-c1ccc(NS(=O)(=O)c2ccccc2Cl)c(F)c1 [Compound 90, N-(4-(2-(((1r,4r)-4-aminocyclohexyl)amino)-7-methylquinazolin-6-yl)-2-fluorophenyl)-2-chlorobenzene-sulfonamide] | ≤ 5 nM | 5 to 50 nM
2 | CCc1cc(-c2ccc(NS(=O)(=O)c3ccccc3Cl)nc2C)cc2cnc(N[C@H]3CC[C@H](N(C)CCOC)CC3)nc12 [Compound 132, 2-chloro-N-(5-(8-ethyl-2-(((1r,4r)-4-((2-methoxyethyl)(methyl)amino)cyclohexyl)amino)quinazolin-6-yl)-6-methylpyridin-2-yl)benzenesulfonamide] | ≤ 5 nM | ≤ 5 nM
3 | CCc1c(F)c(-c2cc(F)c(NS(=O)(=O)c3ccccc3Cl)nc2C)cc2cnc(N[C@H]3CC[C@H](N(C)C)CC3)nc12 [Compound 162, 2-chloro-N-(5-(2-(((1r,4r)-4-(dimethylamino)cyclohexyl)amino)-8-ethyl-7-fluoroquinazolin-6-yl)-3-fluoro-6-methylpyridin-2-yl)benzenesulfonamide] | ≤ 5 nM | ≤ 5 nM
4 | CCc1cc(-c2cnc(NS(=O)(=O)c3ccccc3Cl)nc2OC)cc2cnc(N[C@H]3CC[C@H](N(C)C)CC3)nc12 [Compound 154, 2-chloro-N-(5-(2-(((1r,4r)-4-(dimethylamino)cyclohexyl)amino)-8-ethylquinazolin-6-yl)-4-methoxypyrimidin-2-yl)benzenesulfonamide] | ≤ 5 nM | ≤ 5 nM
5 | N[C@H]1CC[C@H](Nc2ncc3cc(-c4ccc(NS(=O)(=O)c5ccccc5Cl)c(F)c4F)ccc3n2)CC1 [Compound 56, N-(4-(2-(((1r,4r)-4-aminocyclohexyl)amino)quinazolin-6-yl)-2,3-difluorophenyl)-chlorobenzene-sulfonamide] | ≤ 5 nM | ≤ 5 nM
6 | N[C@H]1CC[C@H](Nc2ncc3cc(-c4c(F)cc(NS(=O)(=O)c5ccccc5Cl)cc4F)ccc3n2)CC1 [Compound 62, N-(4-(2-(((1r,4r)-4-aminocyclohexyl)amino)quinazolin-6-yl)-3,5-difluorophenyl)-chlorobenzene-sulfonamide] | ≤ 5 nM | 5 to 50 nM
7 | COc1nc(NS(=O)(=O)c2ccccc2Cl)ccc1-c1cc(C(F)(F)F)c2nc(N[C@H]3CC[C@H](N(C)C)CC3)ncc2c1 [Compound 135, 2-chloro-N-(5-(2-(((1r,4r)-4-(dimethylamino)cyclohexyl)amino)-8-(trifluoromethyl)quinazolin-6-yl)-6-methoxypyridin-2-yl)benzenesulfonamide] | ≤ 5 nM | ≤ 5 nM
8 | N[C@H]1CC[C@H](Nc2ncc3cc(-c4ccc(NS(=O)(=O)c5ccccc5Cl)cc4)ccc3n2)CC1 [Compound 26, N-(4-(2-(((1r,4r)-4-aminocyclohexyl)amino)quinazolin-6-yl)phenyl)-2-chlorobenzene-sulfonamide] | ≤ 5 nM | ≤ 5 nM
9 | N[C@H]1CC[C@H](Nc2ncc3cc(-c4cnc(NS(=O)(=O)c5ccccc5Cl)c(F)c4)ccc3n2)CC1 [Compound 54, N-(5-(2-(((1r,4r)-4-aminocyclohexyl)amino)quinazolin-6-yl)-3-fluoropyridin-2-yl)-2-chlorobenzene-sulfonamide] | ≤ 5 nM | 5 to 50 nM
10 | CCc1cc(-c2ccc(NS(=O)(=O)c3ccccc3Cl)c(F)c2)cc2cnc(N[C@H]3CC[C@H](NC)CC3)nc12 [Compound 60, 2-chloro-N-(4-(8-ethyl-2-(((1r,4r)-4-(methylamino)cyclohexyl)amino)quinazolin-6-yl)-2-fluorophenyl) benzene sulfonamide] | ≤ 5 nM | ≤ 5 nM
11 | CCc1cc(-c2cc(F)c(NS(=O)(=O)c3ccccc3Cl)nc2OC)cc2cnc(N[C@H]3CC[C@H](N(C)C)CC3)nc12 [Compound 128, 2-chloro-N-(5-(2-(((1r,4r)-4-(dimethylamino)cyclohexyl)amino)-8-ethylquinazolin-6-yl)-3-fluoro-6-methoxypyridin-2-yl)benzenesulfonamide] | ≤ 5 nM | ≤ 5 nM
12 | CCc1cc(-c2ccc(NS(=O)(=O)c3ccccc3C)nc2OC)cc2cnc(N[C@H]3CC[C@H](NC)CC3)nc12 [Compound 118, N-(5-(8-ethyl-2-(((1r,4r)-4-(methylamino)cyclohexyl)amino)quinazolin-6-yl)-6-methoxypyridin-2-yl)-2-methylbenzenesulfonamide] | ≤ 5 nM | ≤ 5 nM
13 | CCc1cc(-c2ccc(NS(=O)(=O)c3ccccc3Cl)c(F)c2)cc2cnc(N[C@H]3CC[C@H](NC(C)=O)CC3)nc12 [Compound 59] | 5 to 50 nM | 50 to 100 nM
14 | CCc1cc(-c2ccc(NS(=O)(=O)c3ccccc3Cl)c(F)c2)cc2cnc(NC34CCC(N)(CC3)CC4)nc12 [Compound 87, N-(4-(2-((4-aminobicyclo[2.2.2]octan-1-yl)amino)-8-ethylquinazolin-6-yl)-2-fluorophenyl)-2-chlorobenzene-sulfonamide] | ≤ 5 nM | ≤ 5 nM
15 | CCc1cc(-c2ccc(NS(=O)(=O)c3ccccc3Cl)c(F)c2)cc2cnc(N[C@@H]3CC[C@@H](N)C3)nc12 [Compound 78, N-(4-(2-(((1R,3R)-3-aminocyclopentyl)amino)-8-ethylquinazolin-6-yl)-2-fluorophenyl)-2-chlorobenzene-sulfonamide] | ≤ 5 nM | ≤ 5 nM
16 | CCc1c(F)c(-c2ccc(NS(=O)(=O)c3ccccc3Cl)nc2C)cc2cnc(N[C@H]3CC[C@H](N(C)C)CC3)nc12 [Compound 161, 2-chloro-N-(5-(2-(((1r,4r)-4-(dimethylamino)cyclohexyl)amino)-8-ethyl-7-fluoroquinazolin-6-yl)-6-methylpyridin-2-yl)benzenesulfonamide] | ≤ 5 nM | ≤ 5 nM
17 | CCc1cc(-c2ccc(NS(=O)(=O)c3cccc(Cl)c3Cl)nc2C)cc2cnc(N[C@H]3CC[C@H](N(C)C)CC3)nc12 [Compound 152, 2,3-dichloro-N-(5-(2-(((1r,4r)-4-(dimethylamino)cyclohexyl)amino)-8-ethylquinazolin-6-yl)-6-methylpyridin-2-yl)benzenesulfonamide] | ≤ 5 nM | ≤ 5 nM
18 | COc1nc(NS(=O)(=O)c2ccccc2Cl)c(F)cc1-c1ccc2nc(N[C@H]3CC[C@H](N(C)C)CC3)ncc2c1 [Compound 149, 2-chloro-N-(5-(2-(((1r,4r)-4-(dimethylamino)cyclohexyl)amino)quinazolin-6-yl)-3-fluoro-6-methoxypyridin-2-yl)benzenesulfonamide] | ≤ 5 nM | 5 to 50 nM
19 | CN[C@H]1CC[C@H](Nc2ncc3cc(-c4cc(F)c(NS(=O)(=O)c5ccccc5Cl)nc4OC)ccc3n2)CC1 [Compound 150, 2-chloro-N-(3-fluoro-6-methoxy-5-(2-(((1r,4r)-4-(methylamino)cyclohexyl)amino)quinazolin-6-yl)pyridin-2-yl)benzenesulfonamide] | ≤ 5 nM | 5 to 50 nM
20 | CCc1cc(-c2ccc(NS(=O)(=O)c3ccccc3Cl)c(F)c2)cc2cnc(N[C@H]3CC4C[C@@H](N)CC4C3)nc12 (some centres unmarked) [Compound 84] | ≤ 5 nM | 5 to 50 nM
21 | CCc1cc(-c2ccc(NS(=O)(=O)c3ccccc3Cl)nc2C)cc2cnc(N[C@H]3CC[C@H](N(C)CC)CC3)nc12 [Compound 125, 2-chloro-N-(5-(8-ethyl-2-(((1r,4r)-4-(ethyl(methyl)amino)cyclohexyl)amino)quinazolin-6-yl)-6-methylpyridin-2-yl)benzenesulfonamide] | ≤ 5 nM | ≤ 5 nM
22 | CCc1cc(-c2ccc(NS(=O)(=O)c3ccccc3Cl)nc2C)cc2cnc(N[C@H]3CC[C@H](NC)CC3)nc12 [Compound 122, 2-chloro-N-(5-(8-ethyl-2-(((1r,4r)-4-(methylamino)cyclohexyl)amino)quinazolin-6-yl)-6-methylpyridin-2-yl)benzenesulfonamide] | ≤ 5 nM | ≤ 5 nM

— patent publication US12071424B2, “IRE1 small molecule inhibitors” (Cornell University, priority 2017, dated 2024)
